Type in all cases: cell-based
One assay concerns the target T1, rat M1 Y106A receptor (Rattus norvegicus, UniProt P08482, Y106A).
T1 construct: expressed in transfected cells
T1 sequence (P08482 1-460 Y106A): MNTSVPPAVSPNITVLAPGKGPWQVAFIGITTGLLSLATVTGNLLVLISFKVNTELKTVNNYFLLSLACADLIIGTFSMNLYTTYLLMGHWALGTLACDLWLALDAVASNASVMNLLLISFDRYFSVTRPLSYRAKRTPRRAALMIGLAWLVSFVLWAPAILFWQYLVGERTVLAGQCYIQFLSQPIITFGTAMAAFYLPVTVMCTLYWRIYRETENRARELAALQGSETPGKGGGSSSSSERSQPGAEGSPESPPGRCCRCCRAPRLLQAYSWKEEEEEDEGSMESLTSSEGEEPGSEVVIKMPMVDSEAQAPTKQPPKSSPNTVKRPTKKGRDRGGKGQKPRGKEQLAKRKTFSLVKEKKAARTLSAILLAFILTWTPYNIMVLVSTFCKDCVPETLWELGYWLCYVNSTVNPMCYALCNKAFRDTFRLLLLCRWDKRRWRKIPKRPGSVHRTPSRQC
The assay can be described thus: Phosphatidyl inositol hydrolysis assay, Y106A. Conditions: Table 6; for Shift: EC50 Y106A divided by EC50 wild-type; for EC50 / Eff (%): PI hydrolysis, Y106A; for Eff (%): relative to wild-type response to that ligand (clozapine: title says fold-response).

A further assay deals with T2, rat M1 W101A receptor (Rattus norvegicus, UniProt P08482, W101A).
T2 construct: expressed in transfected cells
T2 sequence (P08482 1-460 W101A): T1 sequence (P08482 1-460 Y106A) with W101A, A106Y
The assay is described as follows: Phosphatidyl inositol hydrolysis assay, W101A. The settings on record: Table 6; for Shift: EC50 W101A divided by EC50 wild-type; for EC50 / Eff (%): PI hydrolysis, W101A; for Eff (%): relative to wild-type response to that ligand (clozapine: title says fold-response).

Assay [1] has as its target T3, rat M1 wild-type receptors (Rattus norvegicus, UniProt P08482).
T3 construct: expressed in transfected cells
T3 sequence (P08482 1-460): T1 sequence (P08482 1-460 Y106A) with A106Y
The assay is described as follows: Phosphatidyl inositol hydrolysis assay, wild-type. Conditions: for Shift: EC50 divided by EC50 wild-type (reference).

The target of a further assay is T4, rat M1 S109A receptor (Rattus norvegicus, UniProt P08482, S109A).
T4 construct: expressed in transfected cells
T4 sequence (P08482 1-460 S109A): T1 sequence (P08482 1-460 Y106A) with A106Y, S109A
The assay can be described thus: Phosphatidyl inositol hydrolysis assay, S109A. Conditions: Table 6; for Shift: EC50 S109A divided by EC50 wild-type; for EC50 / Eff (%): PI hydrolysis, S109A; for Eff (%): relative to wild-type response to that ligand.

[2] abbreviates: Table 5, PI hydrolysis, maximum response relative to carbachol.
Setting [3] is: Table 6, PI hydrolysis, M1 WT, maximum response, normalized.

What is called EC50 is the concentration needed to bring the measured effect to its halfway point. For orientation: pEC50 means −log10 of the EC50, conventionally taken in molar units.

SMILES strings stand for the structures. Substitutions are numbered along the chain they refer to.

`CCCCC1CCN(CCCN2C(=O)COc3cc(F)ccc32)CC1` [AC-260584, 4-[3-(4-Butyl-piperidin-1-yl)-propyl]-7-fluoro-4H-benzo [1,4]oxazin-3-one]: the Shift at rat M1 Y106A receptor came out at 4; on rat M1 W101A receptor, 0.03; in assay [1] (Table 6) it was 1; on rat M1 S109A receptor it was 1. Besides, the EC50 on rat M1 Y106A receptor was 251 nM; at rat M1 W101A receptor, 1.58 nM; in assay [1] (Table 5, PI hydrolysis, wild-type), 50.1 nM; at rat M1 S109A receptor it was 79.4 nM. For the same molecule, the “Eff (%)” value was determined as 110 ± 22% at rat M1 Y106A receptor; 112 ± 6% on rat M1 W101A receptor; 99 ± 20% in assay [1] (setting [2]); 100 ± 7% in assay [1] (setting [3]); 85 ± 11% on rat M1 S109A receptor. In assay [1] (Table 6, PI hydrolysis, M1 WT), this molecule displayed a pEC50 of 7.3 ± 0.1.
As to `Clc1ccc2c(c1)N=C(N1CCNCC1)c1ccccc1N2` [NDMC, 8-chloro-11-(1-piperazinyl)-5H-dibenzo [b,e] [1,4] diazepine], the Shift turned out to be 3 on rat M1 Y106A receptor, 6 on rat M1 W101A receptor, 1 in assay [1] (Table 6) and 4 at rat M1 S109A receptor. The 50% effective concentration (EC50) at rat M1 Y106A receptor was 200 nM; on rat M1 W101A receptor, 316 nM; in assay [1] (Table 6, PI hydrolysis, M1 WT) it was 100 nM; at rat M1 S109A receptor it was 200 nM. Moreover, the “Eff (%)” value at rat M1 Y106A receptor amounted to 40 ± 4%; at rat M1 W101A receptor, 54 ± 11%; in assay [1] (setting [2]), 44 ± 17%; in assay [1] (setting [3]), 55 ± 8%; at rat M1 S109A receptor, 47 ± 17%.
